Experiments:
[1] = test system: ER^+ and AR^+ breast and prostate cancer cells; conditions: proliferation of ER^+ and AR^+ breast and prostate cancer cells, previously reported; cited from earlier work
LNCaP = experiment: Clonogenic assay (clonal expansion); format: cell-based; conditions: Prostate Cancer (LNCaP), AR+, inhibition of clonal expansion
Protocol: (§1) Cells were seeded at a density of 1-2×10^3 cells/well in a 6 well plate in RPMI 1640 supplemented with 10% FBS, penicillin (100 u/ml), streptomycin (100 u/ml), and L-glutamine (2 mM). Cells were treated with increasing concentrations of X15695 and cultured for 14 to 21 days. Medium and compounds were exchanged after 7 days. Cells were fixed with methanol/ acetic acid mixture (3:1 v/v) and the formation of colonies was visualized using 0.5% crystal violet (w/v) in 20% methanol (v/v). Plates were scanned in a conventional office scanner (Epson). The area covered by colonies was calculated using the ColonyArea Plugin for ImageJ.

ZR75-1 = experiment: Clonogenic assay (clonal expansion); format: cell-based; conditions: Breast Cancer (ZR75-1), ER+, inhibition of clonal expansion
Protocol: as §1

MCF-7 = experiment: Clonogenic assay (clonal expansion); format: cell-based; conditions: Breast Cancer (MCF-7), ER+, inhibition of clonal expansion
Protocol: as §1

22Rv.1 = experiment: Clonogenic assay (clonal expansion); format: cell-based; conditions: Prostate Cancer (22Rv.1), AR+, inhibition of clonal expansion
Protocol: as §1

T47D = experiment: Clonogenic assay (clonal expansion); format: cell-based; conditions: Homo sapiens; Breast Cancer (T47D), ER+; inhibition of clonal expansion
Protocol: as §1

PC3 = experiment: Clonogenic assay (clonal expansion); format: cell-based; conditions: Homo sapiens; Prostate Cancer (PC3), AR-; inhibition of clonal expansion
Protocol: as §1

DU145 = experiment: Clonogenic assay (clonal expansion); format: cell-based; conditions: Homo sapiens, DU-145; Prostate Cancer (DU145), AR-; inhibition of clonal expansion
Protocol: as §1

[2] = test system: TRMCF-7 cells (tamoxifen resistant MCF-7 cells); experiment: MTT cell viability assay; format: cell-based; conditions: 48 h
Protocol: […] Cells transfected with siRNA were incubated for 72 h after X15695 addition. Thereafter, the medium was exchanged for a fresh medium containing 0.5 mg/ml MTT (Sigma-Aldrich) and incubated at 37°C for 1 h to 4 h (depending on cell line) until intracellular purple formazan crystals were formed. The MTT solution was removed, and the purple crystals were dissolved in isopropanol and the optical absorbance at 595 nm was recorded using SpectraMax iD3, Molecular Devices, San Jose, CA, USA.

ERα = conditions: MCF-7 cells
Protocol: For Western blotting, cells were lysed in NP-40 lysis buffer (1% NP-40, 50 mM Tris-HCl, pH 8.0, 150 mM NaCl, 5 mM EDTA) or 1× passive lysis buffer (Promega, Germany) for 15 min on ice. Cell debris was removed by centrifugation at 13,000 rpm for 10 min and used for SDS-polyacrylamide gel electrophoresis (PAGE) and Western blotting.
Western Blotting was carried out using standard protocols with antibodies: p53 (clone DO1), p53 (Sp5, Thermo Fisher Scientific Karlsruhe, Germany), Mdm2 (4B2, Abcam, Cambridge, UK). […] Secondary goat anti-mouse and goat anti-rabbit antibodies were purchased from DAKO (Bollschweil, Germany).

TRMCF-7 cells = experiment: Clonogenic assay (clonal expansion); format: cell-based
Protocol: as §1

| Structure (SMILES) | IC50 (MCF-7; Homo sapiens, MCF7) | IC50 (22Rv.1; Homo sapiens, 22Rv1) | IC50 (LNCaP; Homo sapiens) | IC50 (ZR75-1; Homo sapiens, ZR-75-1) | IC50 (T47D) | other results |
| --- | --- | --- | --- | --- | --- | --- |
| Fc1ccc(-c2nc3cc(C(F)(F)F)ccc3s2)cc1 [Compound A4B17, reference compound] |  |  |  |  |  | IC50 values [1]: in the micromolar range; IC50 (LNCaP): 1600 nM; IC50 (ZR75-1): 110 nM; IC50 (MCF-7): 1280 nM; IC50 (22Rv.1): 3400 nM |
| Fc1ccc(-c2cn3cc(Br)ccc3n2)cc1 [Compound X19168, 6-bromo-2-(4-fluorophenyl)imidazo[1,2-a]pyridine] | 12 nM | 641 ± 246 nM |  |  |  |  |
| C[C@]12CC[C@@H]3c4ccc(O)cc4C[C@@H](CCCCCCCCC[S+]([O-])CCCC(F)(F)C(F)(F)F)[C@H]3[C@@H]1CC[C@@H]2O (stereo partly drawn) [fulvestrant, reference compound] |  |  |  |  |  | inhibition of viability [2]: comparable activities; ERα downregulation over time (ERα; 1 µM, time course): rapidly downregulated ERα level within 4 h to 8 h recovering gradually thereafter; concentration sufficient to downregulate ERα (ERα; 8 h): ≤ 1 nM; inhibition of clonal expansion (TRMCF-7 cells): slightly more efficacious than X15695 |
| CC/C(=C(\c1ccccc1)c1ccc(OCCN(C)C)cc1)c1ccccc1 [tamoxifen] |  |  |  |  |  | inhibition of viability [2]: ineffective; inhibition of clonal expansion (TRMCF-7 cells): inactive |

Now from value to compound, other results behind:

| IC50 (MCF-7; Homo sapiens, MCF7) | IC50 (22Rv.1; Homo sapiens, 22Rv1) | IC50 (LNCaP; Homo sapiens) | IC50 (ZR75-1; Homo sapiens, ZR-75-1) | IC50 (T47D) | Structure (SMILES) | other results |
| --- | --- | --- | --- | --- | --- | --- |
| 14.5 nM | 4.4 ± 1.6 nM | < 0.1 nM |  |  | Fc1ccccc1-c1cn2cc(C(F)(F)F)cc(Cl)c2n1 [Compound X19720, 8-Chloro-2-(2-fluorophenyl)-6-(trifluoromethyl)imidazo[1,2-a]pyridine] |  |
| 3.3 ± 0.9 nM | 4.4 nM | 0.2 nM | 16.2 ± 4.7 nM | 86.1 ± 49.1 nM | Cc1cc(Cl)c2nc(-c3ccc(F)cc3)cn2c1 [Compound X19724, 8-Chloro-2-(4-fluorophenyl)-6-methylimidazo[1,2-a]pyridine] |  |
| 6 ± 2.8 nM | 48.5 ± 13.3 nM |  | 39.2 ± 24.3 nM |  | Cc1cc(Cl)c2nc(-c3ccccc3)cn2c1 [Compound X19728, 8-Chloro-6-methyl-2-phenylimidazo[1,2-a]pyridine] |  |
| 10 ± 4.3 nM | 7.5 ± 3.2 nM | 0.1 nM | 31.8 nM | 57.1 nM | Fc1ccc(-c2cn3cc(C(F)(F)F)ccc3n2)cc1 [Compound X20046, 2-(4-Fluorophenyl)-6-(trifluoromethyl)imidazo[1,2-a]pyridine] |  |
| 7.9 ± 1.9 nM | 22.5 ± 6.6 nM | < 0.1 nM | 10.2 ± 2.7 nM | 44.7 ± 11.4 nM | FC(F)(F)c1cc(Cl)c2nc(-c3ccccc3)cn2c1 [X19166/ X15696, 8-Chloro-2-phenyl-6-(trifluoromethyl)imidazo[1,2-a]pyridine] | IC50 (PC3): 11.9 µM; IC50 (DU145): 3.58 µM |

— EP4417202A1, “ANTI-CANCER ACTION OF BAG1-SELECTIVE IMIDAZOPYRIDINE COMPOUNDS IN STEROID HORMONE RECEPTOR-POSITIVE BREAST AND PROSTATE CANCER” (Karlsruher Institut für Technologie, priority 2023, dated 2024)
